Results published in PubChem BioAssay AID248 (DTP/NCI, 2004).
Where “and” joins values, the source holds several entries; their conditions need not be identical. Identical values can stand only once. Inconclusive results and toxic doses are left out. Cut-off read from the data, not from the text of the source: active = T/C of 150% or more; inactive = T/C below 125%.

Test system: L1210 leukemia ip in BDF1 mice, survival T/C
Experiment: NCI In Vivo Anticancer Drug Screen. Data for tumor model L1210 Leukemia (intraperitoneal) in B6D2F1 (BDF1) mice
Conditions: endpoint: mean survival time, higher = longer survival
Procedure, shortened: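 Read-out is survival time, reported as the treated-group measurement over the vehicle-control measurement.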

[1] = dose: 100.0 mg/kg/injection, schedule: Q01DX001 (ip), vehicle: carboxymethylcellulose (CMC)
[2] = dose: 200.0 mg/kg/injection, schedule: Q01DX001 (ip), vehicle: carboxymethylcellulose (CMC)
[3] = dose: 400.0 mg/kg/injection, schedule: Q01DX001 (ip), vehicle: carboxymethylcellulose (CMC)
[4] = dose: 100.0 mg/kg/injection, schedule: Q01DX009 (ip), vehicle: Klucel (hydroxypropylcellulose) (HPC)
[5] = dose: 200.0 mg/kg/injection, schedule: Q01DX009 (ip), vehicle: Klucel (hydroxypropylcellulose) (HPC)
[6] = dose: 400.0 mg/kg/injection, schedule: Q01DX009 (ip), vehicle: Klucel (hydroxypropylcellulose) (HPC)
[7] = dose: 50.0 mg/kg/injection, schedule: Q01DX009 (ip), vehicle: Klucel (hydroxypropylcellulose) (HPC)
[8] = dose: 100.0 mg/kg/injection, schedule: Q04DX003 (ip), vehicle: saline with Tween-80
[9] = dose: 200.0 mg/kg/injection, schedule: Q04DX003 (ip), vehicle: saline with Tween-80
[10] = dose: 400.0 mg/kg/injection, schedule: Q04DX003 (ip), vehicle: saline with Tween-80
[11] = dose: 100.0 mg/kg/injection, schedule: Q01DX001 (ip), vehicle: saline
[12] = dose: 200.0 mg/kg/injection, schedule: Q01DX001 (ip), vehicle: saline
[13] = dose: 400.0 mg/kg/injection, schedule: Q01DX001 (ip), vehicle: saline
[14] = dose: 100.0 mg/kg/injection, schedule: Q04DX003 (ip), vehicle: Klucel (hydroxypropylcellulose) (HPC)
[15] = dose: 200.0 mg/kg/injection, schedule: Q04DX003 (ip), vehicle: Klucel (hydroxypropylcellulose) (HPC)
[16] = dose: 400.0 mg/kg/injection, schedule: Q04DX003 (ip), vehicle: Klucel (hydroxypropylcellulose) (HPC)

Measured: T/C

CC(=O)OCC1OC(n2cnc3c(Cl)nc(N)nc32)C(OC(C)=O)C1OC(C)=O (stereo unspecified)
inactive: dose: 100.0 mg/kg/injection, schedule: Q01DX005 (ip), vehicle: saline 103 % of control | dose: 200.0 mg/kg/injection, schedule: Q01DX005 (ip), vehicle: saline 101 % of control

C=C(C)CCCC(C)CC#N (stereo unspecified)
inactive: [1] 117 % of control | [2] 100 % of control | [3] 96 % of control

CNC(=O)Nc1cc(C)ccc1Cl
inactive: dose: 50.0 mg/kg/injection, schedule: Q01DX009 (ip), vehicle: carboxymethylcellulose (CMC) 95 % of control and 89 % of control | dose: 87.5 mg/kg/injection, schedule: Q04DX003 (ip), vehicle: carboxymethylcellulose (CMC) 101 % of control | [1] 94 % of control | dose: 100.0 mg/kg/injection, schedule: Q04DX002 (ip), vehicle: carboxymethylcellulose (CMC) 100 % of control and 117 % of control | dose: 175.0 mg/kg/injection, schedule: Q04DX003 (ip), vehicle: carboxymethylcellulose (CMC) 93 % of control | [2] 92 % of control | dose: 200.0 mg/kg/injection, schedule: Q04DX002 (ip), vehicle: carboxymethylcellulose (CMC) 100 % of control and 102 % of control | dose: 350.0 mg/kg/injection, schedule: Q04DX003 (ip), vehicle: carboxymethylcellulose (CMC) 104 % of control | [3] 94 % of control | dose: 400.0 mg/kg/injection, schedule: Q01DX009 (ip), vehicle: carboxymethylcellulose (CMC) 93 % of control | dose: 400.0 mg/kg/injection, schedule: Q04DX002 (ip), vehicle: carboxymethylcellulose (CMC) 93 % of control and 96 % of control

O=C1C(c2ccccc2)=S=C2Sc3ccccc3N12
inactive: [4] 90 % of control

O=C(Nc1cccc2ccccc12)OCc1ccccc1
inactive: dose: 100.0 mg/kg/injection, schedule: Q04DX002 (ip), vehicle: Klucel (hydroxypropylcellulose) (HPC) 108 % of control | dose: 200.0 mg/kg/injection, schedule: Q04DX002 (ip), vehicle: Klucel (hydroxypropylcellulose) (HPC) 89 % of control | dose: 400.0 mg/kg/injection, schedule: Q04DX002 (ip), vehicle: Klucel (hydroxypropylcellulose) (HPC) 93 % of control

CCCCc1nc2c(O)ccc(O)c2nc1C
inactive: dose: 75.0 mg/kg/injection, schedule: Q01DX001 (ip), vehicle: other 93 % of control | dose: 75.0 mg/kg/injection, schedule: Q04DX003 (ip), vehicle: other 101 % of control | dose: 150.0 mg/kg/injection, schedule: Q01DX001 (ip), vehicle: other 88 % of control | dose: 150.0 mg/kg/injection, schedule: Q04DX003 (ip), vehicle: other 104 % of control | dose: 300.0 mg/kg/injection, schedule: Q01DX001 (ip), vehicle: other 87 % of control

COc1ccc(CN2CCCN(Cc3ccc(OC)cc3)C2c2c(O)ccc3ccccc23)cc1
inactive: dose: 5.0 mg/kg/injection, schedule: Q01DX001 (ip), vehicle: acetone 100 % of control | dose: 10.0 mg/kg/injection, schedule: Q01DX001 (ip), vehicle: acetone 95 % of control | dose: 20.0 mg/kg/injection, schedule: Q01DX001 (ip), vehicle: acetone 92 % of control | dose: 40.0 mg/kg/injection, schedule: Q01DX001 (ip), vehicle: acetone 88 % of control

Cc1cccc(NC(=O)c2cccc(F)c2)c1C
inactive: [4] 105 % of control | [5] 100 % of control | [6] 94 % of control

Cc1cc(N2CCC(N3CCCC3)CC2)nc(/N=C(\N)Nc2ccc(Cl)c(Cl)c2)n1
inactive: dose: 12.0 mg/kg/injection, schedule: Q01DX009 (ip), vehicle: saline 97 % of control | dose: 25.0 mg/kg/injection, schedule: Q01DX009 (ip), vehicle: saline 106 % of control | dose: 50.0 mg/kg/injection, schedule: Q01DX009 (ip), vehicle: saline 98 % of control

NC(=O)c1ccccc1NC(=O)Nc1ccc(Cl)cc1
inactive: [4] 98 % of control | [5] 96 % of control | [6] 91 % of control

Cc1[nH]c2ccc([N+](=O)[O-])cc2c(=O)c1[N+](=O)[O-] (tested in a mixture with another compound)
inactive: [7] 94 % of control | [4] 87 % of control | [5] 105 % of control

NC(=O)CN1C(=O)C2C3C=CC(C3)C2C1=O (stereo unspecified)
inactive: [8] 97 % of control | [9] 109 % of control | [10] 97 % of control

NC(=O)NC1C(c2ccccc2)C1c1ccccc1 (stereo unspecified)
inactive: [11] 121 % of control | [12] 110 % of control | [13] 93 % of control

CN(C)C=C(S(C)(=O)=O)S(C)(=O)=O
inactive: dose: 75.0 mg/kg/injection, schedule: Q04DX003 (ip), vehicle: saline 97 % of control | dose: 100.0 mg/kg/injection, schedule: Q01DX009 (ip), vehicle: saline 101 % of control | dose: 150.0 mg/kg/injection, schedule: Q04DX003 (ip), vehicle: saline 97 % of control | dose: 200.0 mg/kg/injection, schedule: Q01DX009 (ip), vehicle: saline 109 % of control | dose: 300.0 mg/kg/injection, schedule: Q04DX003 (ip), vehicle: saline 101 % of control | dose: 400.0 mg/kg/injection, schedule: Q01DX009 (ip), vehicle: saline 98 % of control

CCCOC1=C2CCCCC2CC1 (stereo unspecified)
inactive: [11] 113 % of control | [12] 113 % of control | [13] 102 % of control

c1ccc(-c2cc(-c3ccccc3)[s+]s2)cc1
inactive: dose: 50.0 mg/kg/injection, schedule: Q01DX009 (ip), vehicle: saline with Tween-80 100 % of control | dose: 100.0 mg/kg/injection, schedule: Q01DX009 (ip), vehicle: saline with Tween-80 90 % of control | [8] 113 % of control | [9] 92 % of control | [10] 88 % of control

CCCCOC(=O)c1ccc(C)s1
inactive: [1] 95 % of control | [2] 101 % of control | [3] 95 % of control

CCOC(=O)C(CC(C)C)NC(=O)C(N)Cc1ccc(N(CCCl)CCCl)cc1 (stereo unspecified)
inactive: dose: 2.5 mg/kg/injection, schedule: Q01DX009 (ip), vehicle: water 116 % of control

Cc1cccc(C(N)=S)n1
inactive: [4] 97 % of control | [5] 93 % of control

COc1cccc(C=Nc2ccc(I)cc2)c1O.COc1cccc(C=Nc2ccc(I)cc2)c1O.[Co]
inactive: dose: 100.0 mg/kg/injection, schedule: Q04DX003 (ip), vehicle: saline 94 % of control | dose: 200.0 mg/kg/injection, schedule: Q04DX003 (ip), vehicle: saline 94 % of control | dose: 400.0 mg/kg/injection, schedule: Q04DX003 (ip), vehicle: saline 109 % of control

Clc1ccc(S/C=C/c2ccccc2)cc1
inactive: dose: 100.0 mg/kg/injection, schedule: Q01DX001 (ip), vehicle: Klucel (hydroxypropylcellulose) (HPC) 103 % of control | [4] 91 % of control | [14] 102 % of control | dose: 200.0 mg/kg/injection, schedule: Q01DX001 (ip), vehicle: Klucel (hydroxypropylcellulose) (HPC) 110 % of control | [5] 100 % of control | [15] 98 % of control | dose: 400.0 mg/kg/injection, schedule: Q01DX001 (ip), vehicle: Klucel (hydroxypropylcellulose) (HPC) 97 % of control | [6] 91 % of control | [16] 104 % of control

CCCCNC(c1ccccc1)=[N+]1C(C)CCCC1C (stereo unspecified)
inactive: dose: 3.0 mg/kg/injection, schedule: Q04DX002 (ip), vehicle: saline 108 % of control | dose: 6.0 mg/kg/injection, schedule: Q04DX002 (ip), vehicle: saline 94 % of control | dose: 12.0 mg/kg/injection, schedule: Q04DX002 (ip), vehicle: saline 87 % of control | dose: 12.5 mg/kg/injection, schedule: Q04DX002 (ip), vehicle: saline 107 % of control

COc1ccc(Cc2ccc(OC)cc2)cc1
inactive: dose: 50.0 mg/kg/injection, schedule: Q01DX001 (ip), vehicle: saline 96 % of control | [11] 96 % of control | [12] 96 % of control | [13] 90 % of control

CC[n+]1ccc(Cc2ccc([N+](=O)[O-])cc2)cc1
inactive: dose: 25.0 mg/kg/injection, schedule: Q01DX009 (ip), vehicle: Klucel (hydroxypropylcellulose) (HPC) 102 % of control | [7] 95 % of control | [4] 100 % of control

CC(C)OC(=O)Nc1ccc(Cl)cn1
inactive: [14] 103 % of control | [15] 101 % of control | [16] 95 % of control

O=C1c2cccc3cccc(c23)C(=O)N1O
inactive: dose: 100.0 mg/kg/injection, schedule: Q01DX001 (ip), vehicle: other 104 % of control | dose: 200.0 mg/kg/injection, schedule: Q01DX001 (ip), vehicle: other 98 % of control | dose: 400.0 mg/kg/injection, schedule: Q01DX001 (ip), vehicle: other 106 % of control
